Test results: US20200163984A1, “USE OF ISOVALERYL SPIRAMYCIN I, II AND/OR III IN MANUFACTURING MEDICAMENT FOR TREATING AND/OR PREVENTING TUMOR, AND MEDICAMENT” (SHENYANG FUYANG PHARMACEUTICAL TECHNOLOGY CO., LTD., priority 2017, published 2020)

Columns and labels:
[1] = system: transplanted tumor of human renal clear cell adenocarcinoma cell 786-O; assay: 786-O transplanted tumor in nude mice; conditions: for Tumor Volume (mm3) (d 1): d1
Protocol: (§1) 786-O cells in a logarithmic growth phase were taken and subjected to a trypan blue exclusion experiment showing that the cell viability was more than 95%, then the cells were subjected to trypsinization, centrifugation, and supernatant removal. Then cell concentration was adjusted to 1×10^7/ml with matrigel, then each nude mouse was inoculated subcutaneously with 0.2 ml of cells at its right armpit and recorded as the first day of inoculation. When the tumor grows to be greater than or equal to 100 mm^3, the mice were randomly divided into 11 groups with 6 mice in each group: a model group, a cyclophosphamide group, isovaleryl spiramycin I groups with doses of 25, 50 and 100 mg/kg, isovaleryl spiramycin II groups with doses of 25, 50 and 100 mg/kg, and isovaleryl spiramycin III groups with doses of 25, 50 and 100 mg/kg. Each group was continuously administered intragastrically for 30 days with a dose of 20 ml/kg. The mice were sacrificed the next day after drug withdrawal and the indicators were tested. The long diameter and short diameter of the tumor, and the body weight of each mouse were recorded every 3 days from drug administration to nude mouse sacrifice.
(§2) The body weight of the nude mice and the long diameter (a) and short diameter (b) of the transplanted tumor were measured every 3 days, and the tumor volume (v), relative tumor volume (RTV) and relative tumor proliferation rate (T/C) are calculated respectively according to the following formulas, wherein V=a×b^2/2; RTV=V/V0 (V0 is the tumor volume before administration, V is the tumor volume before sacrifice), and T/C (%)=treatment group RTV/model control group RTV×100%.
(§3) Each mouse was weighed and sacrificed. After the tumor was completely stripped off from the body of the mouse, the non-tumor tissues such as blood stains and fat were removed to weigh the tumor and calculate the tumor growth inhibition rate. The average tumor weight of each group of mice is used as an indicator of efficacy. Tumor growth inhibition rate (%)=(1−the average tumor weight of the treatment group/the average tumor weight of the model group)×100%.

[2] = system: transplanted tumor of HT-29 cells; assay: HT-29 transplanted tumor in nude mice; conditions: for Inhibition Rate (%) / Tumor Weight: HT-29 nude mice; for Tumor Volume (mm3) (d30): d 30
Protocol: as §1, with “Then” for “786-O cells in a logarithmic growth phase were taken and subjected to a trypan blue exclusion experiment showing that the cell viability was more than 95%, then the cells were subjected to trypsinization, centrifugation, and supernatant removal. Then”, “group:” for “group: a model group, a cyclophosphamide group,”
as §2, §3

[3] = system: transplanted tumor of mouse H22 liver cancer; assay: Transplanted tumor of mouse H22 liver cancer; conditions: for Tumor Volume (mm3) (d30): d 30; for Body Weight (g) (d1) / Body Weight (g) (d 7): mouse, in vivo
Protocol: The H22 cell strains cryopreserved in liquid nitrogen were resuscitated in Kunming mice. After 3 generations, the ascites of Kunming mice were taken and placed in a 50 ml centrifuge tube in which 10 ml of 0.9% normal saline was added, and then centrifuging was performed at 1000 rpm for 5 min at room temperature, and the obtained supernatant was removed. Then 10 ml of 0.9% normal saline was added to the tube to blow and mix well, and then the mixture was diluted to 5×10^6 live cells/ml with normal saline after counting. The tube was stored in ice water, and 75% ethanol was used to disinfect the skin under the right armpits of the mice. Each Kunming mouse was soon inoculated subcutaneously with 0.2 ml of the cells at the armpit of the right forelimb.
In the H22 liver cancer model, the mice inoculated with the tumor were randomly divided into groups with 10 mice in each group on the next day of inoculation. The groups included: a model control group, a positive drug cyclophosphamide control group (CTX, 26 mg/kg), isovaleryl spiramycin I groups with doses of 13, 26 and 52 mg/kg; isovaleryl spiramycin II groups with doses of 13, 26 and 52 mg/kg; isovaleryl spiramycin III groups with doses of 13, 26 and 52 mg/kg. Each group was continuously administered intragastrically for 7 days with a dose of 20 ml/kg.
The tumor-bearing mice were weighed and sacrificed the next day after the last administration. The subcutaneous tumors were dissected and weighed. The average tumor weight of each group is calculated, and the tumor inhibition rate is calculated.
Tumor inhibition rate=(1−T/C)×100%
T: average tumor weight of the drug-administered group; C: average tumor weight of the blank control group.

[4] = 786-O, high dose (100 mg/kg in method) i.g. 30 days
[5] = 786-O, low dose (25 mg/kg in method) i.g. 30 days
[6] = 786-O, medium dose (50 mg/kg in method) i.g. 30 days
[7] = HT-29, high dose (100 mg/kg in method) i.g. 30 days
[8] = HT-29, low dose (25 mg/kg in method) i.g. 30 days
[9] = HT-29, medium dose (50 mg/kg in method) i.g. 30 days

- mouse weight compared with the model group ([1]; mouse, in vivo): no significant changes
- mouse weight compared with the model group ([2]; mouse, in vivo): no significant changes
Structure (SMILES): COC1C(OC(C)=O)CC(=O)OC(C)CC=CC=CC(OC2CCC(N(C)C)C(C)O2)C(C)CC(CC=O)C1OC1OC(C)C(OC2CC(C)(O)C(OC(=O)CC(C)C)C(C)O2)C(N(C)C)C1O (centres unmarked) [Isovaleryl spiramycin II, isovaleryl spiramycin II]
- Inhibition Rate (%) ([1]; 786-O nude mice, 25 mg/kg): 19.69%
- Relative Tumor Proliferation Rate (T/C) ([1]; 786-O nude mice, 25 mg/kg): 76.92%
- Relative Tumor Volume (RTV) ([1]; 786-O nude mice, 25 mg/kg): 14.62 ± 1.93
- Tumor Weight ([1]; 786-O nude mice, 25 mg/kg): 1.72 ± 0.27 g
- Tumor Volume (mm3) (d 1) ([1]; 786-O nude mice, 25 mg/kg): 96.82 ± 8.52 mm3
- Tumor Volume (mm3) (d30) ([1]; 786-O nude mice, 25 mg/kg): 1415.80 ± 201.11 mm3
- Inhibition Rate (%) ([1]; 786-O nude mice, 50 mg/kg): 41.09%
- Relative Tumor Proliferation Rate (T/C) ([1]; 786-O nude mice, 50 mg/kg): 53.61%
- Relative Tumor Volume (RTV) ([1]; 786-O nude mice, 50 mg/kg): 10.19 ± 2.62
- Tumor Weight ([1]; 786-O nude mice, 50 mg/kg): 1.26 ± 0.31 g
- Tumor Volume (mm3) (d 1) ([1]; 786-O nude mice, 50 mg/kg): 96.82 ± 8.52 mm3
- Tumor Volume (mm3) (d30) ([1]; 786-O nude mice, 50 mg/kg): 982.68 ± 265.02 mm3
- Inhibition Rate (%) ([1]; 786-O nude mice, 100 mg/kg): 60.00%
- Relative Tumor Proliferation Rate (T/C) ([1]; 786-O nude mice, 100 mg/kg): 35.74%
- Relative Tumor Volume (RTV) ([1]; 786-O nude mice, 100 mg/kg): 6.79 ± 1.65
- Tumor Weight ([1]; 786-O nude mice, 100 mg/kg): 0.85 ± 0.16 g
- Tumor Volume (mm3) (d 1) ([1]; 786-O nude mice, 100 mg/kg): 103.26 ± 9.71 mm3
- Tumor Volume (mm3) (d30) ([1]; 786-O nude mice, 100 mg/kg): 701.57 ± 127.91 mm3
- Relative Tumor Proliferation Rate (T/C) [1, 4]: 35.74%
- tumor growth inhibition rate [1, 4]: 60.00%
- Relative Tumor Proliferation Rate (T/C) [1, 5]: 76.92%
- tumor growth inhibition rate [1, 5]: 19.69%
- tumor volume and relative tumor volume compared with the model group ([1]; 786-O, low, medium and high doses, P<0.05): significantly lower
- Relative Tumor Proliferation Rate (T/C) [1, 6]: 53.61%
- tumor growth inhibition rate [1, 6]: 41.09%
- Body Weight (g) (d1) ([1]; mouse, in vivo, 25 mg/kg): 22.05 ± 0.71 g
- Body Weight (g) (d30) ([1]; mouse, in vivo, 25 mg/kg): 23.33 ± 0.54 g
- Body Weight (g) (d1) ([1]; mouse, in vivo, 50 mg/kg): 22.42 ± 0.54 g
- Body Weight (g) (d30) ([1]; mouse, in vivo, 50 mg/kg): 23.42 ± 0.50 g
- Body Weight (g) (d1) ([1]; mouse, in vivo, 100 mg/kg): 22.33 ± 0.41 g
- Body Weight (g) (d30) ([1]; mouse, in vivo, 100 mg/kg): 23.45 ± 0.91 g
- Relative Tumor Proliferation Rate (T/C) [2, 7]: 44.05%
- tumor growth inhibition rate [2, 7]: 55.74%
- Relative Tumor Proliferation Rate (T/C) [2, 8]: 84.18%
- tumor growth inhibition rate [2, 8]: 16.24%
- tumor volume and relative tumor volume compared with the model group ([2]; HT-29, low, medium and high doses, P<0.05): significantly lower
- Relative Tumor Proliferation Rate (T/C) [2, 9]: 79.34%
- tumor growth inhibition rate [2, 9]: 32.41%
- Inhibition Rate (%) ([2]; 25 mg/kg): 16.24%
- Tumor Weight ([2]; 25 mg/kg): 1.97 ± 0.34 g
- Inhibition Rate (%) ([2]; 50 mg/kg): 32.41%
- Tumor Weight ([2]; 50 mg/kg): 1.59 ± 0.49 g
- Inhibition Rate (%) ([2]; 100 mg/kg): 55.74%
- Tumor Weight ([2]; 100 mg/kg): 1.04 ± 0.40 g
- Relative Tumor Proliferation Rate (T/C) ([2]; dose 25 mg/kg): 84.18%
- Relative Tumor Volume (RTV) ([2]; dose 25 mg/kg): 12.13 ± 3.40
- Tumor Volume (mm3) (d 1) ([2]; dose 25 mg/kg): 163.26 ± 38.80 mm3
- Tumor Volume (mm3) (d30) ([2]; dose 25 mg/kg): 1885.85 ± 219.49 mm3
- Relative Tumor Proliferation Rate (T/C) ([2]; dose 50 mg/kg): 79.34%
- Relative Tumor Volume (RTV) ([2]; dose 50 mg/kg): 11.43 ± 5.13
- Tumor Volume (mm3) (d 1) ([2]; dose 50 mg/kg): 142.56 ± 22.44 mm3
- Tumor Volume (mm3) (d30) ([2]; dose 50 mg/kg): 1568.80 ± 603.77 mm3
- Relative Tumor Proliferation Rate (T/C) ([2]; dose 100 mg/kg): 44.05%
- Relative Tumor Volume (RTV) ([2]; dose 100 mg/kg): 6.35 ± 2.87
- Tumor Volume (mm3) (d 1) ([2]; dose 100 mg/kg): 156.45 ± 37.20 mm3
- Tumor Volume (mm3) (d30) ([2]; dose 100 mg/kg): 921.49 ± 299.38 mm3
- Body Weight (g) (d1) ([2]; mouse, in vivo, 25 mg/kg): 21.04 ± 1.28 g
- Body Weight (g) (d30) ([2]; mouse, in vivo, 25 mg/kg): 20.88 ± 1.29 g
- Body Weight (g) (d1) ([2]; mouse, in vivo, 50 mg/kg): 21.36 ± 1.35 g
- Body Weight (g) (d30) ([2]; mouse, in vivo, 50 mg/kg): 20.9 ± 1.29 g
- Body Weight (g) (d1) ([2]; mouse, in vivo, 100 mg/kg): 20.80 ± 0.89 g
- Body Weight (g) (d30) ([2]; mouse, in vivo, 100 mg/kg): 21.53 ± 1.08 g
- growth of H22 liver cancer in mice ([3]; 13, 26 and 52 mg/kg i.g. 7 days): significantly inhibit
- Relative Tumor Proliferation Rate (T/C) ([3]; dose 12.5 mg/kg): 78.85
- Relative Tumor Volume (RTV) ([3]; dose 12.5 mg/kg): 7.83 ± 1.50
- Tumor Volume (mm3) (d 1) ([3]; dose 12.5 mg/kg): 120.80 ± 18.48 mm3
- Tumor Volume (mm3) (d30) ([3]; dose 12.5 mg/kg): 931.38 ± 141.51 mm3
- Inhibition Rate (%) ([3]; dose 13 mg/kg): 19.74%
- Tumor ([3]; dose 13 mg/kg): 1.22 ± 0.31 g
- Relative Tumor Proliferation Rate (T/C) ([3]; dose 25 mg/kg): 66.04
- Relative Tumor Volume (RTV) ([3]; dose 25 mg/kg): 6.56 ± 2.19
- Tumor Volume (mm3) (d 1) ([3]; dose 25 mg/kg): 118.02 ± 10.35 mm3
- Tumor Volume (mm3) (d30) ([3]; dose 25 mg/kg): 779.30 ± 292.34 mm3
- Inhibition Rate (%) ([3]; dose 26 mg/kg): 30.26%
- Tumor ([3]; dose 26 mg/kg): 1.06 ± 0.33 g
- Relative Tumor Proliferation Rate (T/C) ([3]; dose 50 mg/kg): 56.20
- Relative Tumor Volume (RTV) ([3]; dose 50 mg/kg): 5.58 ± 0.95
- Tumor Volume (mm3) (d 1) ([3]; dose 50 mg/kg): 118.18 ± 14.68 mm3
- Tumor Volume (mm3) (d30) ([3]; dose 50 mg/kg): 659.02 ± 138.35 mm3
- Inhibition Rate (%) ([3]; dose 52 mg/kg): 45.39%
- Tumor ([3]; dose 52 mg/kg): 0.83 ± 0.46 g
- Body Weight (g) (d1) ([3]; 13 mg/kg): 24.22 ± 2.15 g
- Body Weight (g) (d 7) ([3]; 13 mg/kg): 27.27 ± 2.20 g
- Body Weight (g) (d1) ([3]; 26 mg/kg): 24.72 ± 1.69 g
- Body Weight (g) (d 7) ([3]; 26 mg/kg): 27.35 ± 0.80 g
- Body Weight (g) (d1) ([3]; 52 mg/kg): 23.45 ± 1.69 g
- Body Weight (g) (d 7) ([3]; 52 mg/kg): 27.02 ± 0.90 g
